# US10086085B2, “Bifunctional cytotoxic agents” (priority 2014, dated 2018)
# pIC50: −log10 of the molar value. Where two headings read alike, the source gives them in different places.
# Legend:
# [1] = system: N87 (human gastric carcinoma derived from metastatic liver site); assay: Cytotoxicity assay for payloads (MTS), N87 cells; type: cell-based; settings: N87 cells, incubated with compounds for four days, MTS absorbance 490 nm, read-out: N87 IC50
# Method: (§1) Cancer cell lines were obtained from ATCC (Manassas, Va.). N87 (human gastric carcinoma derived from metastatic liver site). HL60 (leukemia), A375 (melanoma) and HUVEC (human umbilical vein endothelial cells). were grown in RPMI 1640 media. All media were supplemented with 10% fetal bovine serum, 1% sodium pyruvate, and 1% L-glutamine (Invitrogen, Grand Island, N.Y.). Human umbilical vein endothelial cells (HUVEC) were obtained from Lonza (Allendale, N.J.) and maintained in EGM2 media supplemented with EGM-2 SingleQuots (Lonza # CC-4176). All cells were maintained in a humidified incubator (37° C., 5% CO2).
# (§2) Cells in 100 μl medium were cultured in a 96-well plate. Cancer cell lines treated with the indicated compounds by adding 50 μl of 3× stocks in duplicate at 10 concentrations. Cells were incubated with compounds for four days, then 30 μl of CellTiter® 96 AQueous One MTS Solution (Promega Cat # G3582) was added to the cells, incubated 1.5 hr at 37° C., then absorbance measured at 490 nm on a Victor plate reader (Perkin Elmer, Waltham, Mass.). Relative cell viability was determined as a percentage of untreated control wells. IC50 values were calculated using four parameter logistic model #203 with XLfit v4.2 (IDBS, Guildford, Surry, UK).
# HL60 (leukemia) = assay: Cytotoxicity assay for payloads (MTS), HL-60 cells; type: cell-based; settings: incubated with compounds for four days, MTS absorbance 490 nm
# Method: as §1, §2
compound,measurement,setting,value
"O=C([C@@H]1CCC[C@H](C(=O)N2C[C@@H](CCl)c3c2cc(O)c2ccccc32)C1)N1C[C@@H](CCl)c2c1cc(O)c1ccccc21 [Compound 16, (S)-((1R,3S)-cyclohexane-1,3-diyl)bis(((S)-1-(chloromethyl)-5-hydroxy-1H-benzo[e]indol-3(2H)-yl)methanone)]",pIC50,"[1]; Homo sapiens, 96 h",8.75
same,pIC50,"HL60 (leukemia); Homo sapiens, 96 h",9.79
"O=C(c1cccc(C(=O)N2C[C@@H](CCl)c3c2cc(O)c2ccccc32)n1)N1C[C@@H](CCl)c2c1cc(O)c1ccccc21 [Compound 18, (S)-pyridine-2,6-diylbis(((S)-1-(chloromethyl)-5-hydroxy-1H-benzo[e]indol-3(2H)-yl)methanone)]",pIC50,"[1]; Homo sapiens, 96 h",6.76
same,pIC50,"HL60 (leukemia); Homo sapiens, 96 h",8.66
"O=C(c1cccc(C(=O)N2C[C@@H](CCl)c3c2cc(O)c2ccccc32)c1)N1C[C@@H](CCl)c2c1cc(O)c1ccccc21 [Compound 20, (S)-1,3-phenylenebis(((S)-1-(chloromethyl)-5-hydroxy-1H-benzo[e]indol-3(2H)-yl)methanone)]",pIC50,"[1]; Homo sapiens, 96 h",6.53
same,pIC50,"HL60 (leukemia); Homo sapiens, 96 h",8.79
"O=C(CCSCCC(=O)N1C[C@@H](CCl)c2c1cc(O)c1ccccc21)N1C[C@@H](CCl)c2c1cc(O)c1ccccc21 [Compound 23, (S)-3,3′-thiobis(1-((S)-1-(chloromethyl)-5-hydroxy-1H-benzo[e]indol-3(2H)-yl)propan-1-one)]",pIC50,"[1]; Homo sapiens, 96 h",9.60
same,pIC50,"HL60 (leukemia); Homo sapiens, 96 h",10.14
"O=C(c1ccc(C(=O)N2C[C@@H](CCl)c3c2cc(O)c2ccccc32)s1)N1C[C@@H](CCl)c2c1cc(O)c1ccccc21 [Compound 29, (S)-thiophene-2,5-diylbis(((S)-1-(chloromethyl)-5-hydroxy-1H-benzo[e]indol-3(2H)-yl)methanone)]",pIC50,"[1]; Homo sapiens, 96 h",11.05
same,pIC50,"HL60 (leukemia); Homo sapiens, 96 h",> 12.00
"O=C(c1ccc(C(=O)N2C[C@@H](CCl)c3c2cc(O)c2ccccc32)[nH]1)N1C[C@@H](CCl)c2c1cc(O)c1ccccc21 [Compound 32, (S)-(1H-pyrrole-2,5-diyl)bis(((S)-1-(chloromethyl)-5-hydroxy-1H-benzo[e]indol-3(2H)-yl)methanone)]",pIC50,"[1]; Homo sapiens, 96 h",10.28
same,pIC50,"HL60 (leukemia); Homo sapiens, 96 h",11.30
"NC(CC(=O)N1C[C@@H](CCl)c2c1cc(O)c1ccccc21)CC(=O)N1C[C@@H](CCl)c2c1cc(O)c1ccccc21 [Compound 40, 3-Amino-1,5-bis-((S)-1-chloromethyl-5-hydroxy-1,2-dihydro-enzo[e]indol-3-yl)-pentane-1,5-dione]",pIC50,"[1]; Homo sapiens, 96 h",8.73
same,pIC50,"HL60 (leukemia); Homo sapiens, 96 h",9.75
"Nc1cccc(C(CC(=O)N2C[C@@H](CCl)c3c2cc(O)c2ccccc32)CC(=O)N2C[C@@H](CCl)c3c2cc(O)c2ccccc32)c1 [Compound 44, 3-(3-Amino-phenyl)-1,5-bis-((S)-1-chloromethyl-5-hydroxy-1,2-dihydro-benzo[e]indol-3-yl)-pentane-1,5-dione]",pIC50,"[1]; Homo sapiens, 96 h",≤ 8.00
same,pIC50,"HL60 (leukemia); Homo sapiens, 96 h",8.28
"Nc1ccc(C(CC(=O)N2C[C@@H](CCl)c3c2cc(O)c2ccccc32)CC(=O)N2C[C@@H](CCl)c3c2cc(O)c2ccccc32)cc1 [Compound 48, 3-(4-Amino-phenyl)-1,5-bis-((S)-1-chloromethyl-5-hydroxy-1,2-dihydro-benzo[e]indol-3-yl)-pentane-1,5-dione]",pIC50,"[1]; Homo sapiens, 96 h",7.91
same,pIC50,"HL60 (leukemia); Homo sapiens, 96 h",8.76
"Nc1ccc(CCC(=O)N(CC(=O)N2C[C@@H](CCl)c3c2cc(O)c2ccccc32)CC(=O)N2C[C@@H](CCl)c3c2cc(O)c2ccccc32)cc1 [Compound 56, 3-(4-Amino-phenyl)-N,N-bis-[2-((S)-1-chloromethyl-5-hydroxy-1,2-dihydro-benzo[e]indol-3-yl)-2-oxo-ethyl]-propionamide]",pIC50,"[1]; Homo sapiens, 96 h",≤ 7.00
same,pIC50,"HL60 (leukemia); Homo sapiens, 96 h",8.16
"O=C(CCNC(=O)N1C[C@@H](CCl)c2c1cc(O)c1ccccc21)N1C[C@@H](CCl)c2c1cc(O)c1ccccc21 [Compound 65, (S)-1-Chloromethyl-5-hydroxy-1,2-dihydro-benzo[e]indole-3-carboxylic acid [3-((S)-1-chloromethyl-5-hydroxy-1,2-dihydro-benzo[e]indol-3-yl)-3-oxo-propyl]-amide]",pIC50,"[1]; Homo sapiens, 96 h",9.26
same,pIC50,"HL60 (leukemia); Homo sapiens, 96 h",11.40
"CC(=O)Oc1cc2c(c3ccccc13)[C@H](CCl)CN2C(=O)c1cc(C(=O)N2C[C@@H](CCl)c3c2cc(OC(C)=O)c2ccccc32)n(C)n1 [Compound 74, acetic acid (S)-3-[5-((S)-5-acetoxy-1-chloromethyl-1,2-dihydro-benzo[e]indole-3-carbonyl)-1-methyl-1H-pyrazole-3-carbonyl]-1-chloromethyl-2,3-dihydro-1H-benzo[e]indol-5-yl ester]",pIC50,"[1]; Homo sapiens, 96 h",7.12
same,pIC50,"HL60 (leukemia); Homo sapiens, 96 h",8.13
"CC(=O)Oc1cc2c(c3ccccc13)[C@H](CCl)CN2C(=O)C12CCC(C(=O)N3C[C@@H](CCl)c4c3cc(OC(C)=O)c3ccccc43)(CC1)N2 [Compound 79, 7-azabicyclo[2.2.1]heptane-1,4-diylbis[carbonyl(1S)-1-(chloromethyl)-1,2-dihydro-3H-benzo[e]indole-3,5-diyl]diacetate]",pIC50,[1],8.10
same,pIC50,HL60 (leukemia),9.30
"CC(=O)Oc1cc2c(c3ccccc13)[C@H](CCl)CN2C(=O)C12CCC(C(=O)N3C[C@@H](CCl)c4c3cc(OC(C)=O)c3ccccc43)(C1)C2 [Compound 82, (1S,4S)-bicyclo[2.1.1]hexane-1,4-diylbis[carbonyl(1S)-1-(chloromethyl)-1,2-dihydro-3H-benzo[e]indole-3,5-diyl]diacetate]",pIC50,"[1]; Homo sapiens, 96 h",8.49
same,pIC50,"HL60 (leukemia); Homo sapiens, 96 h",9.44
"CC(=O)Oc1cc2c(c3c(C)c[nH]c13)[C@H](CCl)CN2C(=O)C12CCC(C(=O)N3C[C@@H](CCl)c4c3cc(OC(C)=O)c3[nH]cc(C)c43)(CC1)CC2 [Compound 85, bicyclo[2.2.2]octane-1,4-diylbis[carbonyl(1S)-1-(chloromethyl)-8-methyl-1,6-dihydropyrrolo[3,2-e]indole-3,5(2H)-diyl]diacetate]",pIC50,"[1]; Homo sapiens, 96 h",10.28
same,pIC50,"HL60 (leukemia); Homo sapiens, 96 h",11.30
"CC(=O)Oc1cc2c(c3c(C)c[nH]c13)[C@H](CCl)CN2C(=O)C12CCC(C(=O)N3C[C@@H](CCl)c4c3cc(OC(C)=O)c3[nH]cc(C)c43)(CC1)C2 [Compound 88, bicyclo[2.2.1]heptane-1,4-diylbis[carbonyl(1S)-1-(chloromethyl)-8-methyl-1,6-dihydropyrrolo[3,2-e]indole-3,5(2H)-diyl]diacetate]",pIC50,"[1]; Homo sapiens, 96 h",9.30
same,pIC50,"HL60 (leukemia); Homo sapiens, 96 h",10.66
"CC(=O)Oc1cc2c(c3c(C)c[nH]c13)[C@H](CCl)CN2C(=O)C12CC(C(=O)N3C[C@@H](CCl)c4c3cc(OC(C)=O)c3[nH]cc(C)c43)(C1)C2 [Compound 91, bicyclo[1.1.1]pentane-1,3-diylbis[carbonyl(1S)-1-(chloromethyl)-8-methyl-1,6-dihydropyrrolo[3,2-e]indole-3,5(2H)-diyl]diacetate]",pIC50,"[1]; Homo sapiens, 96 h",10.24
same,pIC50,"HL60 (leukemia); Homo sapiens, 96 h",11.40
"CC(=O)Oc1cc2c(c3c(C)c[nH]c13)[C@H](CCl)CN2C(=O)CC12CC(C(=O)N3C[C@@H](CCl)c4c3cc(OC(C)=O)c3[nH]cc(C)c43)(C1)C2 [Compound 97, (8S)-6-[(3-{[(1S)-5-(acetyloxy)-1-(chloromethyl)-8-methyl-1,6-dihydropyrrolo[3,2-e]indol-3(2H)-yl]carbonyl}bicyclo[1.1.1]pent-1-yl)acetyl]-8-(chloromethyl)-1-methyl-3,6,7,8-tetrahydropyrrolo[3,2-e]indol-4-yl acetate]",pIC50,"[1]; Homo sapiens, 96 h",9.65
same,pIC50,"HL60 (leukemia); Homo sapiens, 96 h",11.05
"CC(=O)Nc1ccc2c(OC(C)=O)cc3c(c2c1)[C@@H](CCl)CN3C(=O)C12CC(C(=O)N3C[C@@H](CCl)c4c3cc(OC(C)=O)c3ccccc43)(C1)C2 [Compound 108, (1R)-8-(acetylamino)-3-[(3-{[(1S)-5-(acetyloxy)-1-(chloromethyl)-1,2-dihydro-3H-benzo[e]indol-3-yl]carbonyl}bicyclo[1.1.1]pent-1-yl)carbonyl]-1-(chloromethyl)-1,2-dihydro-3H-benzo[e]indol-5-yl acetate]",pIC50,"[1]; Homo sapiens, 96 h",8.40
same,pIC50,"HL60 (leukemia); Homo sapiens, 96 h",9.37
"CC(=O)Nc1ccc2c(OC(C)=O)cc3c(c2c1)[C@H](CCl)CN3C(=O)C12CC(C(=O)N3C[C@@H](CCl)c4c3cc(OC(C)=O)c3ccccc43)(C1)C2 [Compound 109, (1S)-3-[(3-{[(1S)-8-(acetylamino)-5-(acetyloxy)-1-(chloromethyl)-1,2-dihydro-3H-benzo[e]indol-3-yl]carbonyl}bicyclo[1.1.1]pent-1-yl)carbonyl]-1-(chloromethyl)-2,3-dihydro-1H-benzo[e]indol-5-yl acetate]",pIC50,"[1]; Homo sapiens, 96 h",8.64
same,pIC50,"HL60 (leukemia); Homo sapiens, 96 h",10.02
"CC(=O)Oc1cc2c(c3ccccc13)[C@H](CCl)CN2C(=O)c1ccc(C(=O)N2C[C@@H](CCl)c3c2cc(N)c2ccccc32)s1 [Compound 115, Acetic acid (S)-3-[5-((S)-5-amino-1-chloromethyl-1,2-dihydro-benzo[e]indole-3-carbonyl)-thiophene-2-carbonyl]-1-chloromethyl-2,3-dihydro-1H-benzo[e]indol-5-yl ester]",pIC50,"[1]; Homo sapiens, 96 h",8.84
same,pIC50,"HL60 (leukemia); Homo sapiens, 96 h",10.82
"Nc1cc2c(c3ccccc13)[C@H](CCl)CN2C(=O)C12CC(C(=O)N3C[C@@H](CCl)c4c3cc(N)c3ccccc43)(C1)C2 [Compound 130, bicyclo[1.1.1]pentane-1,3-diylbis{[(1S)-5-amino-1-(chloromethyl)-1,2-dihydro-3H-benzo[e]indol-3-yl]methanone}]",pIC50,"[1]; Homo sapiens, 96 h",8.74
same,pIC50,"HL60 (leukemia); Homo sapiens, 96 h",9.64
